In general, IC50 refers to the concentration that gives 50% inhibition. The low end stands for higher potency, the high end for lower potency.

Structures are written as SMILES.

The target of this assay is T1, 3-oxo-5-alpha-steroid 4-dehydrogenase 2 (Homo sapiens, UniProt P31213).
T1 sequence (P31213 whole entry): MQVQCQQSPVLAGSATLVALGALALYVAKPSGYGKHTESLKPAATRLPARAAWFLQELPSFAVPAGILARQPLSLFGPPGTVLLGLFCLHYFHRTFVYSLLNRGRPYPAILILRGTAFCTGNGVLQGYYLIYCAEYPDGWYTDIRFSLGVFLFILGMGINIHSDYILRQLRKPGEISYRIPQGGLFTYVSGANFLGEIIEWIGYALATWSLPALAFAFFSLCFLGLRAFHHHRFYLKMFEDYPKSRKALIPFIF
In words: 5Alpha-Reductase Activity Assay. Particulars: pH 6.5; 37 °C. An excerpt: The IC50 values for the synthesized steroids with human prostate 5alpha-reductase enzyme.
Take `CC(C)(C)NC(=O)[C@H]1CCC2C3CCC4NC(=O)C=C[C@]4(C)C3CC[C@@]21C` (stereo not given in full) [Finasteride, 3]: it took 8.5 nM to reach half-maximal inhibition (IC50).

Compound `CC(=O)[C@@]1(OC(=O)c2ccccc2)CCC2C3CCC4=CC(=O)CC[C@]4(C)C3CC[C@@]21C` (stereo not given in full) [Steroid, 9a] returned an IC50 of 360 nM.

`CC(=O)[C@@]1(OC(=O)c2ccc(Br)cc2)CCC2C3CCC4=CC(=O)CC[C@]4(C)C3CC[C@@]21C` (stereo not given in full) [Steroid, 9b] registered an IC50 of 370 nM.

For `CC(=O)[C@@]1(OC(=O)c2ccccc2)CCC2C3CC[C@@]45O[C@@H]4C(=O)CC[C@]5(C)C3CC[C@@]21C` (stereo not given in full) [Steroid, 10a], the IC50 was found to be 13 nM. Against the preceding compound, the IC50 is about 28-fold lower.

Compound `CC(=O)[C@@]1(OC(=O)c2ccc(Br)cc2)CCC2C3CC[C@@]45O[C@@H]4C(=O)CC[C@]5(C)C3CC[C@@]21C` (stereo not given in full) [Steroid, 10b] yielded an IC50 of 4.9 nM. Compared with the last compound, the IC50 is about 2.7-fold lower.

The values are drawn from BindingDB's records for doi:10.1080/14756360802323720 (National University of Mexico City, 2009).
